Reference: patent publication US11773381B2, “Cell penetrating peptide, conjugate comprising same, and composition comprising conjugate” (GemVax & KAEL CO., LTD., priority 2012, dated 2023)

What follows are sequences tested on HeLa cell (assay: Cell penetration of pep(CPP)-FITC conjugates in HeLa cell line, flow cytometry (FACS)). Conditions: HeLa cells, 20 μM of each carrier peptide combined with FITC, 37° C. for an hour, control cells treated only FITC.
Assay type: cell-based, Homo sapiens
Protocol: Homo sapiens cervix adenocarcinoma cell line as HeLa cell lines were purchased from ATCC (American Type Cell Culture). The cells were cultured in MEM supplemented with 10% fetal bovine serum (Invitrogen, USA), Earle's salts, non-essential amino acids, sodium pyruvate and 100 μg/ml penicillin and 10 units/ml streptomycin and cultured at 37° C., 5% CO2 incubator.
Flow cytometry and Confocal microscope analysis were performed to compare the between degree of cellular uptake of the cells were treated with SEQ ID NO: 1 to SEQ ID NO: 156, pep (CPP) and control.
The cell line was divided in a 6-well plate and cultured in a medium containing 10% fetal bovine serum (Invitrogen, USA), […] at 37° C., 5% CO2 incubator for 12 hours. After washing the cell line with PBS, starvation was induced in a Minimum Essential Medium for an hour. 20 μM of each carrier peptide was treated and cultured at 37° C. for an hour. After repeating the step of washing the cells with PBS for three times, Trypsin-EDTA was treated form 10 mins at 37° C. to separate the carrier peptide on the outside of the cell. cells were collected with refrigerated PBS and centrifugation was performed to repeat the step of washing the cells for three times. After then, the cells were suspended in 0.5 ml of PBS containing 4% Paraformaldehyde and fluorescence of the cells was analyzed using FACS Calibur (Becton Dickinson). The cellular uptake aspect of control and various peptides combined with FITC was compared and analyzed by MFI (Mean Fluorescence Intensity).
Analysis results shown in FIG. 1 to FIG. 23 are given in detail in Table 3 below.

| Sequence | cellular uptake, MFI (Mean Fluorescence Intensity) |
| --- | --- |
| AAEHRLREEILAKFLHWLMS (listed as Homo sapiens) [pep134] | 78.05 ± 2.26 |
| AAGPLPSEAVQWLCHQAFLL (listed as Homo sapiens) [pep103] | 126.88 ± 2.14 |
| AERLTSRVKALFSVL (listed as Homo sapiens) [pep10] | 559.78 ± 3.41 |
| AHGHVRKAFKSHVSTLTDLQ (listed as Homo sapiens) [pep145] | 11.97 ± 0.78 |
| ALFSVLNYE (listed as Homo sapiens) [pep29] | 33.5 ± 2.48 |
| ALFSVLNYER (listed as Homo sapiens) [pep15] | 35.61 ± 1.29 |
| ALFSVLNYERARRPGLLGASVLGLDDIHRA [pep2] | 37.6 ± 1.89 |
| ALLTSRLRFI (listed as Homo sapiens) [pep5] | 19.06 ± 1.33 |
| AQCPYGVLLKTHCPLRAAVT (listed as Homo sapiens) [pep70] | 21.82 ± 1.76 |
| ARRPGLLG (listed as Homo sapiens) [pep33] | 14.36 ± 1.63 |
| ARRPGLLGA (listed as Homo sapiens) [pep26] | 14.81 ± 1.77 |
| ATQARPPPHASGPRRRLGCE (listed as Homo sapiens) [pep59] | 18.58 ± 0.52 |
| CGPPLYQLGAATQARPPPHA (listed as Homo sapiens) [pep116] | 20.5 ± 0.97 |
| CPPVYAETKHFLYSSGDKEQ (listed as Homo sapiens) [pep66] | 20.7 ± 2.57 |
| DARPPPAAPSFRQVSCLKEL (listed as Homo sapiens) [pep53] | 16.16 ± 0.66 |
| DEALGGTAFVQMPAHGLFPW (listed as Homo sapiens) [pep153] | 31.72 ± 1.74 |
| EAEVRQHREARPALL (listed as Homo sapiens) [pep40] | 11.63 ± 1.11 |
| EARPALLTSRLRFIPKPDGL (listed as Homo sapiens) [pep138] | 16.43 ± 0.91 |
| EDTDPRRLVQLLRQHSSPWQ (listed as Homo sapiens) [pep72] | 17.57 ± 2.31 |
| ERARRPGL (listed as Homo sapiens) [pep32] | 11.98 ± 2.92 |
| ERARRPGLL (listed as Homo sapiens) [pep22] | 13.56 ± 0.23 |
| FIPKPDGLRPIVNMD (listed as Homo sapiens) [pep42] | 20.82 ± 1.93 |
| FLYSSGDKEQLRPSFLLSSL (listed as Homo sapiens) [pep124] | 23.74 ± 3.62 |
| FSVLNYERAR (listed as Homo sapiens) [pep18] | 18.7 ± 1.21 |

| Sequence | cellular uptake, MFI (Mean Fluorescence Intensity) |
| --- | --- |
| FVLRVRAQDPPPELY (listed as Homo sapiens) [pep46] | 24.67 ± 2.02 |
| GAAPEPERTPVGQGSWAHPG (listed as Homo sapiens) [pep62] | 14.55 ± 3.71 |
| GARTFRREKRAERLTSRVKA (listed as Homo sapiens) [pep82] | 22.44 ± 3.32 |
| GASVLGLDDI (listed as Homo sapiens) [pep14] | 10.51 ± 3.71 |
| GLLGASVL (listed as Homo sapiens) [pep34] | 14.41 ± 3.44 |
| GLLGASVLG (listed as Homo sapiens) [pep30] | 14.37 ± 1.73 |
| GLLGASVLGL (listed as Homo sapiens) [pep4] | 28.35 ± 2.54 |
| GVPLGLPAPGARRRGGSASR (listed as Homo sapiens) [pep118] | 14.69 ± 0.33 |
| KLQSIGIRQHLKRVQ (listed as Homo sapiens) [pep39] | 21.4 ± 0.99 |
| KLTRHRVTYVPLLGSLRTAQ (listed as Homo sapiens) [pep104] | 36.74 ± 1.11 |
| KMSVRDCAWLRRSPGVGCVP (listed as Homo sapiens) [pep133] | 46.79 ± 1.92 |
| KSVWSKLQSIGIRQH (listed as Homo sapiens) [pep48] | 26.51 ± 2.36 |
| KTFLRTLVRGVPEYGCVVNL (listed as Homo sapiens) [pep94] | 117.76 ± 4.24 |
| LCSLCYGDMENKLFAGIRRD (listed as Homo sapiens) [pep92] | 19.91 ± 0.51 |
| LDDIHRAWRTFVLRV (listed as Homo sapiens) [pep45] | 203.77 ± 3.26 |
| LFFYRKSVWSKLQSI [pep38] | 380.4 ± 2.6 |
| LFSVLNYERARRPGLLGASV (listed as Homo sapiens) [pep83] | 24.57 ± 1.36 |
| LGASVLGL (listed as Homo sapiens) [pep36] | 15.37 ± 2.65 |
| LGPQGWRLVQRGDPAAFRAL (listed as Homo sapiens) [pep109] | 12.46 ± 1.32 |
| LKRVQLRELSEAEVRQ (listed as Homo sapiens) [pep49] | 13.91 ± 0.51 |
| LLGASVLGL (listed as Homo sapiens) [pep12] | 22 ± 2.6 |
| LLVTPHLTHAKTFLRLTVRG (LLVTPHLTHAKTFLRTLVRG; listed as Homo sapiens) [pep151] | 23.52 ± 0.56 |
| LRFIPKPDGLRPIVNMDYVV (listed as Homo sapiens) [pep81] | 29.69 ± 2.49 |
| LRRVGDDVLVHLIARCALFV (LRRVGDDVLVHLLARCALFV; listed as Homo sapiens) [pep57] | 568.02 ± 3.01 |

| Sequence | cellular uptake, MFI (Mean Fluorescence Intensity) |
| --- | --- |
| LSEAEVRQHREARPALLTSR (listed as Homo sapiens) [pep80] | 12.45 ± 0.46 |
| LVAPSCAYWVCGPPLYQLGA (LVAPSCAYQVCGPPLYQLGA; listed as Homo sapiens) [pep58] | 19.87 ± 0.94 |
| MPRAPRCRAV (listed as Homo sapiens) [pep107] | 23.11 ± 0.56 |
| MPRAPRCRAVRSLLRSHYRE (listed as Homo sapiens) [pep50] | 2228.76 ± 3.68 |
| NKLFAGIRRDGLLLRLVDDF (listed as Homo sapiens) [pep150] | 17.46 ± 0.24 |
| NYERARRPGL (listed as Homo sapiens) [pep19] | 13.04 ± 3.41 |
| PAAGVCAREKPQGSVAAPEE (listed as Homo sapiens) [pep71] | 16.61 ± 0.88 |
| PALPSDFKTILD (listed as Homo sapiens) [pep106] | 12.45 ± 0.38 |
| PGLLGASVL (listed as Homo sapiens) [pep27] | 9.89 ± 2.51 |
| PPEAFTTSVRSYLPNTVTDA (listed as Homo sapiens) [pep113] | 16.09 ± 2.5 |
| PQDRLTEVIASIIKP (listed as Homo sapiens) [pep47] | 15.85 ± 1.03 |
| PYMRQFVAHLQETSPLRDAV (listed as Homo sapiens) [pep146] | 18.32 ± 1.82 |
| QETSPLRDAVVIEQSSSLNE (listed as Homo sapiens) [pep89] | 13.54 ± 0.75 |
| QMPAHGLFPWCGLLLDTRTL (listed as Homo sapiens) [pep96] | 308.53 ± 3.61 |
| RARRPGLL (listed as Homo sapiens) [pep35] | 15.54 ± 1.38 |
| RAWNHSVREAGVPLGLPAPG (listed as Homo sapiens) [pep60] | 15.79 ± 1.63 |
| RFHACVLQLPFHQQVWKNPT (listed as Homo sapiens) [pep158] | 87.75 ± 2.51 |
| RGDPAAFRALVAQCLVCVPW (listed as Homo sapiens) [pep52] | 16.67 ± 2.22 |
| RGKSYVQCQGIPQGSILSTL (listed as Homo sapiens) [pep91] | 24.41 ± 2.79 |
| RKTVVNFPVEDEALGGTAFV (listed as Homo sapiens) [pep95] | 10.92 ± 0.07 |
| RLTSRVKAL (listed as Homo sapiens) [pep7] | 9.51 ± 2.95 |
| RLVPPGLWGSRHNERRFLRN (listed as Homo sapiens) [pep131] | 32.51 ± 2.38 |
| RPALLTSRL (listed as Homo sapiens) [pep6] | 15.81 ± 1.59 |
